Assay results from patent USRE33024E, “Bronchodilating 8-hydroxy-5-(1R)-1-hydroxy-2-(N-((1R)-2-(p-methoxyphenyl)-1-methylethyl) -amino)ethyl) carbostyril and intermediates thereof” (Tanabe Seiyaku Co. Ltd., priority 1983, dated 1989).
Where a name gives a salt, the structure may show the parent alone.

Key:
in vivo = conditions: mouse, iv
Experimental: (§1) A test compound was dissolved in 5% glucose solution, and the test compound solution (0.2 ml/10 g of body weight) was administered intravenously to Male ddY strain mice (body weight: 25-28 g). The LD50 of the test compound was estimated by the Up and Down method.

[1] = tested on: antigen-induced bronchoconstriction; test: Inhibitory effect on antigen-induced bronchoconstriction (Konzett-Rossler method); assay type: in vivo, guinea pig (Male Hartley); conditions: Cavia porcellus, iv; i.v. one minute before ovalbumin challenge (30 μg/kg, i.v.); passively sensitized guinea pigs
Experimental: Inhibitory effect on antigen-induced bronchoconstriction
Male Hartley guinea pigs (body weight: 280-520 g) were passively sensitized by intravenous injection of rabbit antiserum against ovalbumin (0.2 ml/100 g of body weight, PCA titer: ×1000), 24 hours later, the animals were anesthetized with α-chloralose (120 mg/kg, i.v.) and immobilized with gallamine triethiodide (5 mg/kg, i.v.) under artificial respiration. Lung volume changes were measured as overflow of air from the lung by the Konzett-Rossler method (cf. Arch. Exp. Pathol. Pharmakol., 195, 71 (1940)). The test compound was administered intravenously to the animals one minute before said animals were challenged with ovalbumin (30 μg/kg, i.v.). The ED50 (i.e., the dose of the test compound which is necessary to produce 50% reduction of antigen-induced bronchoconstruction) was estimated from the dose-response curve.

[2] = tested on: isolated tracheal muscle preparations of Male Hartley guinea pigs; test: Bronchodilating activity: relaxation of histamine-induced contraction of isolated tracheal muscle preparations (Magnus' method); parameters: species or system guinea pig (Male Hartley)
Experimental: Isolated tracheal muscle preparations of Male Hartley guinea pigs (body weight: 430-645 g) were used to estimate the bronchodilating activity of a test compound according to Magnus' method. The preparation was suspended in an organ bath filled with 20 ml of Tyrode's solution (37° C.), and said solution was continuously bubbled with air. Histamine 2HCl was added to the bath (final concentration; 1×10^-5 g/ml) and the test compound was added thereto about 15 minutes after the addition of histamine 2HCl. Tension changes in the tracheal smooth muscle were recorded isometrically with a force-displacement transducer. Molar conentration of the test compound which produced 50% relaxation of the histamine-induced tracheal contraction were estimated from the concentration-response curve, and the potency ratio of the test compound to Isoproterenol was calculated therefrom.

Male ddY strain mice = test: Acute toxicity (Up and Down method); conditions: mouse, in vivo
Experimental: as §1

Compound | LD50 (in vivo) [mg/kg] | ED50 [1] [mg/kg] | bronchodilating activity, times as strong as Isoproterenol ([2]; isolated tracheal chains of guinea pigs, versus Isoproterenol) [times] | bronchodilating activity, times as strong as procaterol ([2]; isolated tracheal chains of guinea pigs, versus procaterol) | selectivity ratio (in vivo) | Potency ratio (to Isoproterenol) ([2]; from molar concentration giving 50% relaxation of histamine-induced tracheal contraction, histamine 2HCl 1×10^-5 g/ml, Tyrode's solution 37° C.) | toxicity (in words) (Male ddY strain mice)
COc1ccc(C[C@@H](C)NC[C@H](O)c2ccc(O)c3[nH]c(=O)ccc23)cc1 (relative stereo) [Comp. No. 2, 8-hydroxy-5-{1-hydroxy-2-[N-(2-(p-methoxyphenyl)-1-methylethyl)amino]ethyl}carbotyril (α-isomer) hydrochloride] | 91.3 | 0.00018 |  |  |  |  | 
COc1ccc(C[C@@H](C)NC[C@H](O)c2ccc(O)c3[nH]c(=O)ccc23)cc1.Cl [Comp. No. 1, 8-hydroxy-5-{(1R)-1-hydroxy-2-[N-((1R)-2-(p-methoxyphenyl)-1-methylethyl)amino]ethyl}carbostyril hydrochloride] | 84.6 |  | ~100 | about 10 times |  |  | 
CCC(NC(C)C)C(O)c1ccc(O)c2[nH]c(=O)ccc12 (stereo not shown) [Procaterol, 8-hydroxy-5-[1-hydroxy-2-(isopropylamino)butyl]carbostyril hydrochloride hemihydrate, reference compound] | 70.3 | 0.00064 |  |  | 110000 | 17 | 
COc1ccc(CC(C)NCC(O)c2ccc(O)c3[nH]c(=O)ccc23)cc1 (stereo not shown) [compound (I)] |  |  |  |  |  |  | considerably low
